According to patent US20210121527A1, “METHODS OF TREATING MINIMAL RESIDUAL CANCER” (ICAHN SCHOOL OF MEDICINE AT MOUNT SINAI, priority 2018, published 2021):

Assays:
[1] = tested on: MCF10A-HER2 cells; assay: Cell viability dose-response (Cell Titer Blue) with or without thapsigargin; format: cell-based; conditions: Homo sapiens, 48 hours, absence or presence of thapsigargin 2 nM, dashed line of FIG. 2D
Procedure: (§1) Reagents, cell culture, and treatments: EGF was obtained from PeproTech (Rocky Hill, N.J.) and used at 100 ng/ml. Thapsigargin was from Sigma (St. Louis, Mo.) and used at 2 nM. The ZR75.1-H2B-Dendra2 cell line was generated by stable transfection of the H2B-Dendra2 plasmid (Gurskaya et al., “Engineering of a Monomeric Green-to-Red Photoactivatable Fluorescent Protein Induced by Blue Light,” Nat. Biotechnol. 24:461-465 (2006), which is hereby incorporated by reference in its entirety). For 3D cultures, MCF10A-HER2, SKBR3, and ZR75.1-H2B-Dendra2 cells were plated in growth factor-reduced Matrigel (Corning, Corning, N.Y.) and grown as described previously (Avivar-Valderas et al., “Regulation of Autophagy during ECM Detachment is Linked to a Selective Inhibition of mTORC1 by PERK,” Oncogene 32(41):4932-40 (2013), which is hereby incorporated by reference in its entirety). When referring to “low density,” 3,500 cells/8-well were seeded, and for “high density” 20,000 cells/8-well. Treatments with vehicle (DMSO) or LY4 (2 μM) were replaced every 24 hours for 2D and every 48 hours for 3D cultures.

[2] = tested on: ZR75.1 HER2^+ cells; assay: 3D Matrigel culture of ZR75.1-H2B-Dendra2 cells at low or high density, live cells; format: cell-based, human; conditions: 2 μM, day 2 to day 8, 3D Matrigel
Procedure: as §1

[3] = tested on: HER2^+ tumors; assay: Growth of overt tumors in MMTV-HER2 females; format: in vivo, mouse
Procedure: (§2) Mice, tumor growth, and tissue processing: The FVB/N-Tg (MMTVneu) mouse strain was obtained from Jackson Laboratories (Sacramento, Calif.). […] Before being used in any experiment, females underwent one round of pregnancy and at least two weeks of no lactation after weaning. Females between 24-32 weeks of age were injected intraperitoneally with vehicle (90% corn oil, 10% ethanol) or LY4 (50 mpk) daily, for two weeks. For the combination treatment, females 24-32 weeks of age were treated daily by oral gavage with Abemaciclib (50 mpk) for 4 weeks before starting the treatment described earlier with LY4. Tumor volumes were measured using the formula (Dxd^2)/2, where D is the longest and d is the shortest diameter. For CTC count, animals were anesthetized and whole blood was extracted by cardiac puncture. Mammary glands, lungs, and tumors were collected and fixed in 10% buffered formalin overnight before paraffin embedding. The bone marrow from the two lower limbs was flushed with a 26 G needle and further processed by Ficoll density gradient centrifugation. For CTC as well as for DTC detection in bone marrow, tissues were depleted of mature hematopoietic cells by anti-mouse antibody-labeled magnetic bead separation (Miltenyi Biotec, San Diego, Calif.) before fixation in formalin for 20 minutes at 4° C.
IHC and IF: IHC and IF from paraffin-embedded sections was performed as previously described (Avivar-Valderas et al., “Regulation of Autophagy during ECM Detachment is Linked to a Selective Inhibition of mTORC1 by PERK,” Oncogene 32(41):4932-40 (2013), which is hereby incorporated by reference in its entirety). Briefly, slides were dewaxed and serially rehydrated. Heat-induced antigen retrieval was performed in either citrate buffer (10 mM, pH 6), EDTA buffer (1 mM, pH 8), or Tris/EDTA (pH9). Slides were further permeabilized in 0.1% Triton™-X100, blocked and incubated with primary antibody overnight at 4° C. at 1:50-1:200 dilution. For IHC, an additional step of endogenous peroxidase and avidin/biotin quenching was performed before primary antibody incubation. […] Next, slides were incubated in secondary antibodies (Life Technologies, Norwalk, Conn.) and mounted. For IHC, sections were processed using VectaStain ABC Elite kit (Vector Laboratories, Bulingame, Calif.) and DAB Substrate kit for peroxidase labelling (Vector Laboratories) and mounted in VectaMount medium (Vector laboratories). For IF, sections were mounted in ProLong Gold Antifade aqueous medium (Thermo Fisher, Waltham, Mass.).
TUNEL in situ cell death detection: Apoptosis levels were evaluated using the In situ Cell Death Detection kit, AP (Roche, Basel, Switzerland). Paraffin sections from tumors were dewaxed, rehydrated, and permeabilized in phosphate buffered saline (PBS) 0.2% TRITON™-X100 for 8 minutes. Then, slides were washed and blocked in 20% normal goat serum for 1 hour at 37° C. The TUNEL reaction mixture was then added and let go for 1 hour at 37° C. The reaction was stopped by incubating with Buffer I(0.3 M Sodium chloride, 30 mM Sodium citrate). Next, the slides were incubated with anti-fluorescein-AP antibody for 30 minutes at 37° C. After three washes in Tris buffered saline (TBS), slides were incubated in alkaline phosphatase substrate in 0.1% TWEEN™-20 for 20 min at room temperature. Finally, the slides were mounted using aqueous mounting medium. The percentage of TUNEL positive cells was calculated using Image J software (NIH).

[4] = Tolerability in MMTV-HER2 female mice; format: in vivo, mouse
Procedure: as §2

[5] = target: T1, PERK (Mus musculus, UniProt Q9Z2B5); assay: IHC of P-PERK and P-eIF2α in tissues of treated MMTV-HER2 mice; format: in vivo; conditions: 50 mpk i.p. daily, two weeks
T1 construct: from tissue; host or cells: mammary gland and pancreas sections of MMTV-HER2 (FVB/N-Tg(MMTVneu)) female mice
Procedure: as §2, with “C. […]” for “C.”

T1 sequence (Q9Z2B5 29-1114): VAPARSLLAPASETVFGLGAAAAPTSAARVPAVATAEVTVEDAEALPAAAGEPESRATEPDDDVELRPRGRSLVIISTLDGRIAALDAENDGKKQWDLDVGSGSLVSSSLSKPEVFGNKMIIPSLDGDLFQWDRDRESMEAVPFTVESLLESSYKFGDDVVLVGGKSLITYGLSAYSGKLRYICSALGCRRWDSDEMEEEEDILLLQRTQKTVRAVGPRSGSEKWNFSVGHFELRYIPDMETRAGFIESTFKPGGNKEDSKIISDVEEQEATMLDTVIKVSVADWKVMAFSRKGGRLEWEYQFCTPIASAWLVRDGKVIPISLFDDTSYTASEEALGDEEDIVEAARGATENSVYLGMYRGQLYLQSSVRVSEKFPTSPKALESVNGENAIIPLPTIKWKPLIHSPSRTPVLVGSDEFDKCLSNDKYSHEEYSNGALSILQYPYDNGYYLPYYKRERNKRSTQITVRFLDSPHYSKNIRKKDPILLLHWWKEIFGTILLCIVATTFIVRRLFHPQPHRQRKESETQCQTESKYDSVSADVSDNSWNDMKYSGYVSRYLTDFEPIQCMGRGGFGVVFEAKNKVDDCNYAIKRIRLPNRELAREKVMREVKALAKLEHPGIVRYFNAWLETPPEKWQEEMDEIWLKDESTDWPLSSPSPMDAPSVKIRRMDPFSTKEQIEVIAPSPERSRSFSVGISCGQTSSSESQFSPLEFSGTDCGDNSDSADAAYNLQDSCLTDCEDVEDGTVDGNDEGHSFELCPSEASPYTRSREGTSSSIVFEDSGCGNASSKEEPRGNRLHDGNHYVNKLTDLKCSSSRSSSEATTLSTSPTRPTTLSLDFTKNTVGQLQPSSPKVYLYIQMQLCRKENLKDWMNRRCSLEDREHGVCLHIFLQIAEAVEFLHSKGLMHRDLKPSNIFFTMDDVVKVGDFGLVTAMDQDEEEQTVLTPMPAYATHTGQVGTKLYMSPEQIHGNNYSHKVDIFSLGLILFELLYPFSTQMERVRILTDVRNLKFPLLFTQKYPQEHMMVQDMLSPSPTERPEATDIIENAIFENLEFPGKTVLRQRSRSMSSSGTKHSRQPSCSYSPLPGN

With `Cc1cc(NC(=O)[C@H](O)c2cc(F)cc(F)c2)ccc1-c1cnc(N)c(C(=O)NC(C)C)c1` [LY4, 2-amino-5-[4-[[(2R)-2-(3,5-difluorophenyl)-2-hydroxy-acetyl]amino]-2-methyl-phenyl]-N-isopropyl-pyridine-3-carboxamide] the IC50 [1] was ~9 nM, the “survival of quiescent single cells (low density)” value [2] was “eradicated the quiescent single ZR75.1 HER2^+ cells” and the “viability of cells seeded at high density” value [2] was “no significant effect on the viability”. The “tumors remaining in complete cytostasis” value ([3]; 2-week treatment, 7% in controls) was 43%, the tumors showing regression ([3]; 2-week window treatment) was 25% and the “P-HER2 levels in tumors (IHC score)” value ([3]; 50 mpk, two weeks) was “significantly lower levels of P-HER2 than control animals”. The “TUNEL staining of tumor sections (DNA fragmentation)” value ([3]; 50 mpk, two weeks) was “significant increase in the levels of DNA fragmentation”, the “median final tumor volume” value ([3]; 50 mpk, two weeks) was “significant decrease in median final tumor volume” and the “proliferation in tumors (P-histone H3 IHC)” value ([3]; 50 mpk, two weeks) was “not different between vehicle- and LY4-treated tumors”. For the same molecule, the tumor growth rate ([3]; 50 mpk, two weeks) was “reduced growth rate”, the “bone marrow cell homeostasis and peripheral blood white cells (total cell counts)” value ([4]; 50 mpk i.p. daily, two weeks) was “no effect on total cell counts” and the “tolerability, body weight” value ([4]; 50 mpk i.p. daily, two weeks) was “well tolerated, with no significant changes in body weight”. The “glucose levels, blood cell counts, drinking and feeding behavior” value ([4]; doses of LY4 used, non-tumor or cancer bearing mice) was “did not significantly affect glucose levels, bone marrow, or peripheral blood cell counts, drinking and feeding behavior” and the “P-PERK and P-eIF2α levels in mammary gland ducts and pancreatic tissue” value [5] was “significant decrease in P-PERK and P-eIF2α levels”.
